Results published in patent US12492210B2, “Tricyclic compounds and their use” (HUTCHISON MEDIPHARMA LIMITED, priority 2019, dated 2025).

Tests used:
MAPK1(ERK2) enzyme = molecular target: T1, MAPK1(ERK2) enzyme (Homo sapiens, UniProt P28482); assay: Z-Lyte Kinase Assay of ERK2; assay type: biochemical; settings: read-out: Example 18 IC50
T1 construct: purchased Invitrogen PV3313
In short: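 FRET-based Z-LYTE assay using ERK2 kinase with Ser/Thr3 peptide; compound tested at 0.00046–1 μM final in 2% DMSO. Kinase reaction ran 1 h at 25-30° C, followed by 1 h development. The coumarin/fluorescein emission ratio (445/520 nm) gave % phosphorylation, and IC50 was fitted from inhibition relative to uninhibited control.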

[1] = system: p-RSK (Thr359) in colo205 cells; assay: p-RSK (Thr359) Acumen Assay in Colo205; assay type: cell-based; settings: Homo sapiens, COLO 205, 1 hour compound incubation, read-out: Example 19 IC50
In short: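 Colo205 cells (4000/well, seeded overnight in 10% FBS) were exposed 1 hour at 37° C to compound added from a 3–0.001 μM dilution series in 5% DMSO. Cells were then fixed, permeabilised and immunostained for p-RSK Thr359, with PI counterstain. Acumen cytometry gave the percentage of positive cells, normalised to untreated wells and 3 uM GDC0994 wells, for the IC50 fit.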

T1 sequence (P28482 whole entry): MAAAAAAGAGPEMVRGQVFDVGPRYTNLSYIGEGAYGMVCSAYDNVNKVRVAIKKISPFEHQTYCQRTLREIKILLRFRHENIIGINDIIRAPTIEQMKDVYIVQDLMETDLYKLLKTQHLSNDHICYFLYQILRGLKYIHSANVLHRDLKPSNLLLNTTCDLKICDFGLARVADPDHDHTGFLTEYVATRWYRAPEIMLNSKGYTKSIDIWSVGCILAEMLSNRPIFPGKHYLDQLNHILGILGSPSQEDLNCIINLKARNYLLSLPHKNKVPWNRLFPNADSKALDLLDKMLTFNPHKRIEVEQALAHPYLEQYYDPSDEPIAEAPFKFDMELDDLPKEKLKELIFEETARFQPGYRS

| SMILES | IC50 (MAPK1(ERK2) enzyme) | IC50 [1] |
| --- | --- | --- |
| Cc1cnc(Nc2ccnn2C)nc1-c1cc2n(c1)CCn1c-2nnc1C(F)(F)c1ccccc1Cl [Compound 94] | ≤ 5 nM | ≤ 100 nM |
| Cn1nccc1Nc1cc(-c2cc3n(c2)CC2(CC2)Cn2c-3nnc2C2(C(C)(F)F)CCC2)c(Cl)cn1 [Compound 136] | > 10 nM | ≤ 100 nM |
| Cc1cnc(Nc2ccnn2C)cc1-c1cc2n(c1)CC1(Cn3c-2nnc3C(F)(F)C(F)F)CC(F)(F)C1 [Compound 168] | 5 to 10 nM | > 100 nM |
| Cc1cnc(Nc2ccnn2C)nc1-c1cn2c(n1)-c1nnc(C(F)(F)c3ccccc3Cl)n1[C@@H](C)C2 [Compound 222] | ≤ 5 nM | ≤ 100 nM |
| Cc1cnc(Nc2ccnn2C)nc1-c1cc2n(c1)C[C@H](CF)n1c-2nnc1C(F)(F)c1ccc(F)cc1F [Compound 188] | 5 to 10 nM | ≤ 100 nM |
| CCn1nccc1Nc1ncc(C)c(-c2cc3n(c2)C[C@H](C)n2c-3nnc2C(F)(F)c2ccccc2F)n1 [Compound 289] | > 10 nM | ≤ 100 nM |
| Cn1nccc1Nc1cc(-c2cc3n(c2)C[C@H](F)Cn2c-3nnc2C(F)(F)C(F)F)c(Cl)cn1 [Compound 80] | ≤ 5 nM | ≤ 100 nM |
| C[C@H]1Cn2cc(-c3cc(Nc4ccnn4C)ncc3Cl)cc2-c2nnc(C(F)(F)n3cc(F)cn3)n21 [Compound 108] | ≤ 5 nM | ≤ 100 nM |
| Cn1nccc1Nc1cc(-c2cc3n(c2)CC2(CCC2)Cn2c-3nnc2C2(C(F)(F)F)CCC2)c(Cl)cn1 [Compound 55, 5-chloro-N-(1-methyl-1H-pyrazol-5-yl)-4-(3′-(1-(trifluoromethyl)cyclobutyl)-5′H,7′H-spiro[cyclobutane-1,6′-pyrrolo[1,2-a][1,2,4]triazolo[3,4-c][1,4]diazepin]-10′-yl)pyridin-2-amine] | 5 to 10 nM | ≤ 100 nM |
| Cn1nccc1Nc1cc(-c2cc3n(c2)C[C@H](C(F)F)n2c-3nnc2C(F)(F)c2ccccc2F)c(Cl)cn1 [Compound 208] | > 10 nM | ≤ 100 nM |
| COC[C@H]1Cn2cc(-c3nc(Nc4ccnn4C)ncc3C)nc2-c2nnc(C(F)(F)c3ccccc3F)n21 [Compound 223] | ≤ 5 nM | ≤ 100 nM |
| Cn1nccc1Nc1cc(-c2cc3n(c2)CC(F)(F)Cn2c(Cn4ccc(F)c4C#N)nnc2-3)c(Cl)cn1 [Compound 218] | 5 to 10 nM | ≤ 100 nM |
| COC[C@H]1Cn2cc(-c3cc(Nc4ccnn4C)ncc3Cl)cc2-c2nnc(C(F)(F)C(F)F)n21 [Compound 301] | ≤ 5 nM | > 100 nM |
| C[C@H]1CCn2cc(-c3cc(Nc4ccnn4C)ncc3Cl)cc2-c2nnc(C3(C(F)(F)F)CCC3)n21 [Compound 262] | 5 to 10 nM | ≤ 100 nM |
| Cc1cnc(Nc2ccnn2C)cc1-c1cc2n(c1)C[C@H](CF)n1c-2nnc1C(F)(F)c1sccc1Cl [Compound 195] | ≤ 5 nM | ≤ 100 nM |
| Cn1nccc1Nc1cc(-c2cc3n(c2)C[C@H](CF)n2c-3nnc2C(F)(F)c2ccccc2F)c(F)cn1 [Compound 145] | ≤ 5 nM | ≤ 100 nM |
| Cn1nccc1Nc1cc(-c2cc3n(c2)CC2(CCC2)Cn2c-3nnc2C(F)(F)C(F)F)c(Cl)cn1 [Compound 119] | 5 to 10 nM | > 100 nM |
| Cn1nccc1Nc1cc(-c2cc3n(c2)C[C@H](CF)n2c-3nnc2C(F)(F)c2ncccc2F)c(Cl)cn1 [Compound 194] | ≤ 5 nM | ≤ 100 nM |
| Cn1nccc1Nc1cc(-c2cc3n(c2)CCCn2c(COc4ccccc4F)nnc2-3)c(C(F)(F)F)cn1 [Compound 272] | > 10 nM | ≤ 100 nM |
| Cn1nccc1Nc1cc(-c2cc3n(c2)CCCn2c-3nnc2[C@H](O)C2CCCCC2)c(Cl)cn1 [Compound 24] | 5 to 10 nM | > 100 nM |
| Cn1nccc1Nc1cc(-c2cc3n(c2)C[C@H](F)Cn2c-3nnc2C(F)(F)n2cc(F)cn2)c(Cl)cn1 [Compound 162] | 5 to 10 nM | ≤ 100 nM |
| Cn1nccc1Nc1cc(-c2cc3n(c2)C[C@H](CF)n2c-3nnc2C2(C(F)(F)F)CCC2)c(Cl)cn1 [Compound 121] | ≤ 5 nM | ≤ 100 nM |
| Cn1nccc1Nc1cc(-c2cc3n(c2)CC2(CC2)Cn2c(CCC(F)(F)F)nnc2-3)c(Cl)cn1 [Compound 254] | ≤ 5 nM | ≤ 100 nM |
| Cn1nccc1Nc1cc(-c2cc3n(c2)CC2(CCC2)n2c(CCC(F)(F)F)nnc2-3)c(Cl)cn1 [Compound 253] | ≤ 5 nM | ≤ 100 nM |
| C[C@H]1Cn2c(nnc2C2(C(F)(F)F)CCC2)-c2cc(-c3cc(Nc4ccnn4C)ncc3Cl)cn21 [Compound 50] | ≤ 5 nM | > 100 nM |
| CC[C@H]1Cn2cc(-c3nc(Nc4ccnn4C)ncc3C)cc2-c2nnc(C(F)(F)c3ccccc3F)n21 [Compound 265] | > 10 nM | > 100 nM |

| SMILES | IC50 (MAPK1(ERK2) enzyme) | IC50 [1] |
| --- | --- | --- |
| Cc1cnc(Nc2ccnn2C)cc1-c1cc2n(c1)CC(C)(C)n1c-2nnc1C(F)(F)C(F)F [Compound 234] | ≤ 5 nM | > 100 nM |
| C[C@@H](c1ccccc1)c1nnc2n1CCCn1cc(-c3cc(Nc4ccnn4C)ncc3Cl)cc1-2 [Compound 15] | 5 to 10 nM | ≤ 100 nM |
| COc1cc(Nc2ncc(C)c(-c3cc4n(c3)C[C@H](C)n3c-4nnc3C(F)(F)c3ccccc3F)n2)c(C)cn1 [Compound 294] | > 10 nM | > 100 nM |
| Cc1cnc(NC2CCc3ncnn3C2)nc1-c1cc2n(c1)C[C@H](C)n1c-2nnc1C(F)(F)c1ccccc1F (stereo partly drawn) [Compound 280] | 5 to 10 nM | > 100 nM |
| C[C@H]1Cn2cc(-c3cc(Nc4ccnn4C)ncc3Cl)cc2-c2nnc(C3(C(F)(F)F)CCC3)n21 [Compound 256] | ≤ 5 nM | ≤ 100 nM |
| C[C@@H](CO)Nc1cc(-c2cc3n(c2)CCCn2c-3nnc2C2(C(F)(F)F)CCC2)c(Cl)cn1 [Compound 229, (S)-2-((5-chloro-4-(3-(1-(trifluoromethyl)cyclobutyl)-6,7-dihydro-5H-pyrrolo[1,2-a][1,2,4]triazolo[3,4-c][1,4]diazepin-10-yl)pyridin-2-yl)amino)propan-1-ol] | ≤ 5 nM | ≤ 100 nM |
| Cn1nccc1Nc1cc(-c2cc3n(c2)CC(F)(F)Cn2c(Cn4ncc5ccccc54)nnc2-3)c(Cl)cn1 [Compound 199] | 5 to 10 nM | > 100 nM |
| C[C@H]1CCn2cc(-c3cc(Nc4ccnn4C)ncc3Cl)cc2-c2nnc(C3(C(C)(F)F)CCC3)n21 [Compound 105] | 5 to 10 nM | ≤ 100 nM |
| Cn1nccc1Nc1ncc(Cl)c(-c2cc3n(c2)CCCn2c(COC4(C(F)(F)F)CCC4)nnc2-3)n1 [Compound 213] | ≤ 5 nM | ≤ 100 nM |
| Cc1cc(C(F)(F)c2nnc3n2[C@@H](CF)Cn2cc(-c4cc(Nc5ccnn5C)ncc4C)cc2-3)on1 [Compound 99] | ≤ 5 nM | > 100 nM |
| Cc1cnc(Nc2ccnn2C)cc1-c1cc2n(c1)C[C@H](CF)n1c-2nnc1C(F)(F)n1nccc1Cl [Compound 151] | ≤ 5 nM | ≤ 100 nM |
| Cc1cnc(Nc2ccnn2C)nc1-c1cc2n(c1)CC(F)(F)Cn1c-2nnc1C1(C(F)(F)F)CCC1 [Compound 264] | ≤ 5 nM | > 100 nM |
| Cc1cnc(Nc2ccnn2C)cc1-c1cc2n(c1)C[C@H](CF)n1c-2nnc1C(F)(F)c1cc(F)cc(F)c1 [Compound 182] | 5 to 10 nM | > 100 nM |
| Cc1cnc(Nc2ccnn2CC(F)F)nc1-c1cc2n(c1)C[C@H](C)n1c-2nnc1C(F)(F)c1ccccc1F [Compound 298] | > 10 nM | ≤ 100 nM |
| Cn1nccc1Nc1ncc(F)c(-c2cc3n(c2)C[C@H](CF)n2c-3nnc2C(F)(F)c2ccccc2)n1 [Compound 98] | ≤ 5 nM | ≤ 100 nM |
| Cc1c(-c2ccnc(Nc3ccnn3C)n2)cn2c1-c1nnc([C@H](C)Oc3ccccc3F)n1CCC2 [Compound 29] | ≤ 5 nM | ≤ 100 nM |
| Cc1cnc(Nc2ccnn2C)nc1-c1cn2c(n1)-c1nnc(C(F)(F)c3ccccc3Cl)n1[C@H](CF)C2 [Compound 224] | ≤ 5 nM | ≤ 100 nM |
| Cn1nccc1Nc1cc(-c2cc3n(c2)CC(F)(F)Cn2c-3nnc2C2(C(F)F)CCC2)c(Cl)cn1 [Compound 266] | ≤ 5 nM | ≤ 100 nM |
| Cn1nccc1Nc1cc(-c2cc3n(c2)CCCn2c-3nnc2C(C)(C)C(F)(F)F)c(Cl)cn1 [Compound 22] | ≤ 5 nM | > 100 nM |
| Cc1cnc(Nc2ccnn2C)cc1-c1cc2n(c1)CCCn1c-2nnc1C1(C(F)(F)F)CC1 [Compound 233] | ≤ 5 nM | ≤ 100 nM |
| COC[C@H]1Cn2cc(-c3cc(Nc4ccnn4C)ncc3C)cc2-c2nnc(C(F)(F)c3ccccc3Cl)n21 [Compound 201] | > 10 nM | ≤ 100 nM |
| Cn1nccc1Nc1nccc(-c2cc3n(c2)C[C@H](C(F)(F)F)n2c-3nnc2C(F)(F)c2ccccc2F)n1 [Compound 273] | 5 to 10 nM | > 100 nM |
| Cn1nccc1Nc1cc(-c2cc3n(c2)CC2(CC2)Cn2c-3nnc2C2(C(F)(F)F)CCC2)c(Cl)cn1 [Compound 268] | ≤ 5 nM | ≤ 100 nM |
| Cn1nccc1Nc1cc(-c2cc3n(c2)CC(F)(F)Cn2c(COC(F)(F)F)nnc2-3)c(Cl)cn1 [Compound 107] | ≤ 5 nM | > 100 nM |
| Cn1nccc1Nc1ncc(Cl)c(-c2cc3n(c2)CCCn2c(COc4ccccc4F)nnc2-3)n1 [Compound 211, 5-chloro-4-(3-((2-fluorophenoxy)methyl)-6,7-dihydro-5H-pyrrolo[1,2-a][1,2,4]triazolo[3,4-c][1,4]diazepin-10-yl)-N-(1-methyl-1H-pyrazol-5-yl)pyrimidin-2-amine] | 5 to 10 nM | ≤ 100 nM |
